In ChEMBL document CHEMBL3611992, “Synthesis and Structure-Activity Relationships of Quaternary Coptisine Derivatives as Potential Anti-ulcerative Colitis Agents” (J Med Chem, 2015):
Active and inactive are the calls of the source. The calls are words filed in the database; no cut-off is given here.

Legend:
[1] = biological target: T1, X-box-binding protein 1 (Homo sapiens) (UniProt P17861); test: Transactivation of XBP1 (unknown origin) transfected in rat IEC-6 cells at 10 uM after 48 hrs by dual luciferase reporter gene assay; format: cell-based
T1 sequence (whole entry): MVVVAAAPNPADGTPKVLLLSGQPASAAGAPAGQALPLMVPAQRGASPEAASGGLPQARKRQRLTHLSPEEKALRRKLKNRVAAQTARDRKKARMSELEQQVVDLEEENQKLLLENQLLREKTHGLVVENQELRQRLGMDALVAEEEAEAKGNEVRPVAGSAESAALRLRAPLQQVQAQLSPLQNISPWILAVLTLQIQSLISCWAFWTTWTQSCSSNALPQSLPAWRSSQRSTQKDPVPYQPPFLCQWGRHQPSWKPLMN

Mus musculus [2] = species on record: Mus musculus; test: Anti-ulcerative colitis activity in DSS-induced acute C57Bl/6J mouse ulcerative colitis model; format: functional, organism-based
Mus musculus [3] = species on record: Mus musculus; test: Toxicity in C57Bl/6J mouse; format: organism-based; details: in vivo
Mus musculus [4] = test: Anti-ulcerative colitis activity in DSS-induced acute C57Bl/6J mouse ulcerative colitis model assessed as recovery of each muscle layer structure at 300 mg/kg, po qd measured on day 8; format: functional, organism-based
Mus musculus [5] = test: Anti-ulcerative colitis activity in DSS-induced acute C57Bl/6J mouse ulcerative colitis model assessed as colon macroscopic damage index at 300 mg/kg, po qd measured on day 8 (reference value: 5.69 +/- 1.12); format: functional
Mus musculus [6] = test: Anti-ulcerative colitis activity in DSS-induced acute C57Bl/6J mouse ulcerative colitis model assessed as improvement in number of visible colitis lesions at 300 mg/kg, po qd measured on day 8; format: functional, organism-based
Mus musculus [7] = test: Anti-ulcerative colitis activity in DSS-induced acute C57Bl/6J mouse ulcerative colitis model assessed as improvement in colon contracture at 300 mg/kg, po qd measured on day 8 (reference value: 41.8%); format: functional
Mus musculus [8] = test: Toxicity in DSS-induced acute C57Bl/6J mouse ulcerative colitis model assessed as change in body weight at 300 mg/kg, po qd (reference value: -15.3%); format: organism-based; details: in vivo
Mus musculus [9] = test: Anti-ulcerative colitis activity in DSS-induced acute C57Bl/6J mouse ulcerative colitis model assessed as inhibition rate of disease activity index at 300 mg/kg, po qd measured on day 8 relative to control; format: functional; details: 192 h
[10] = Cytotoxicity against rat IEC-6 cells assessed as cell survival at 10 uM after 24 to 72 hrs by MTT assay; format: cell-based; details: iec-6, 10 µM
[11] = biological target: T1, X-box-binding protein 1 (Homo sapiens); test: Transactivation of XBP1 (unknown origin) transfected in rat IEC-6 cells at 10 uM after 48 hrs by dual luciferase reporter gene assay relative to con 2; format: cell-based
Mus musculus [12] = test: Toxicity in DSS-induced acute C57Bl/6J mouse ulcerative colitis model assessed as change in body weight at 200 mg/kg, po qd (reference value: -15.3%); format: organism-based; details: in vivo
Mus musculus [13] = test: Toxicity in DSS-induced acute C57Bl/6J mouse ulcerative colitis model assessed as change in body weight at 100 mg/kg, po qd (reference value: -15.3%); format: organism-based; details: in vivo
Mus musculus [14] = test: Anti-ulcerative colitis activity in DSS-induced acute C57Bl/6J mouse ulcerative colitis model assessed as inhibition rate of disease activity index at 200 mg/kg, po qd measured on day 8 relative to control; format: functional; details: 192 h
Mus musculus [15] = test: Toxicity in DSS-induced acute C57Bl/6J mouse ulcerative colitis model assessed as change in body weight at 50 mg/kg, po qd (reference value: -15.3%); format: organism-based; details: in vivo
Mus musculus [16] = test: Anti-ulcerative colitis activity in DSS-induced acute C57Bl/6J mouse ulcerative colitis model assessed as inhibition rate of disease activity index at 50 mg/kg, po qd measured on day 8 relative to control; format: functional; details: 192 h
Mus musculus [17] = test: Anti-ulcerative colitis activity in po dosed DSS-induced acute C57Bl/6J mouse ulcerative colitis model assessed as inhibition rate of disease activity index administered as qd measured on day 8; format: functional, organism-based
Mus musculus [18] = test: Anti-ulcerative colitis activity in DSS-induced acute C57Bl/6J mouse ulcerative colitis model assessed as improvement in colon contracture at 100 mg/kg, po qd measured on day 8 (reference value: 41.8%); format: functional
Mus musculus [19] = test: Anti-ulcerative colitis activity in DSS-induced acute C57Bl/6J mouse ulcerative colitis model assessed as improvement in colon contracture at 50 mg/kg, po qd measured on day 8 (reference value: 41.8%); format: functional
Mus musculus [20] = test: Anti-ulcerative colitis activity in DSS-induced acute C57Bl/6J mouse ulcerative colitis model assessed as improvement in colon contracture at 200 mg/kg, po qd measured on day 8 (reference value: 41.8%); format: functional
Mus musculus [21] = test: Anti-ulcerative colitis activity in DSS-induced acute C57Bl/6J mouse ulcerative colitis model assessed as inhibition rate of disease activity index at 100 mg/kg, po qd measured on day 8 relative to control; format: functional; details: 192 h
Mus musculus [22] = test: Anti-ulcerative colitis activity in po dosed DSS-induced acute C57Bl/6J mouse ulcerative colitis model assessed as decrease in colon macroscopic damage index administered as qd measured on day 8; format: functional, organism-based
Mus musculus [23] = test: Anti-ulcerative colitis activity in DSS-induced acute C57Bl/6J mouse ulcerative colitis model assessed as colon macroscopic damage index at 50 mg/kg, po qd measured on day 8 (reference value: 5.69 +/- 1.12); format: functional
Mus musculus [24] = test: Anti-ulcerative colitis activity in DSS-induced acute C57Bl/6J mouse ulcerative colitis model assessed as colon macroscopic damage index at 200 mg/kg, po qd measured on day 8 (reference value: 5.69 +/- 1.12); format: functional
Mus musculus [25] = test: Anti-ulcerative colitis activity in DSS-induced acute C57Bl/6J mouse ulcerative colitis model assessed as improvement in lesions of inflammatory bowel disease at 200 mg/kg, po qd measured on day 8; format: functional, organism-based
Mus musculus [26] = test: Anti-ulcerative colitis activity in DSS-induced acute C57Bl/6J mouse ulcerative colitis model assessed as restoration of polarity arrangement of IEC cells to its normal physiological state at 200 mg/kg, po qd measured on day 8; format: functional, organism-based
Mus musculus [27] = test: Anti-ulcerative colitis activity in DSS-induced acute C57Bl/6J mouse ulcerative colitis model assessed as colon macroscopic damage index at 100 mg/kg, po qd measured on day 8 (reference value: 5.69 +/- 1.12); format: functional
Mus musculus [28] = test: Anti-ulcerative colitis activity in DSS-induced acute C57Bl/6J mouse ulcerative colitis model assessed as decrease in inflammatory lesions in colon tissue at 50 to 100 mg/kg, po qd measured on day 8; format: functional, organism-based
Mus musculus [29] = test: Anti-ulcerative colitis activity in DSS-induced acute C57Bl/6J mouse ulcerative colitis model assessed as appearance of regularly arranged IEC cells at 200 mg/kg, po qd measured on day 8; format: functional, organism-based
Mus musculus [30] = species on record: Mus musculus; test: Potency index, ratio of compound activity to SASP activity for inhibition rate of disease activity index in DSS-induced acute C57Bl/6J mouse ulcerative colitis model; format: functional

## O=c1c2c3c(ccc2cc2n1CCc1cc4c(cc1-2)OCO4)OCO3
[1]
  Activity: Active
Mus musculus [2]
  Activity: inactive

## c1cc2c(c3c1CC1c4cc5c(cc4CCN1C3)OCO5)OCO2 (stereo not given)
Mus musculus [2]
  Activity: inactive

## Fc1cccc(Cc2c3[n+](cc4c5c(ccc24)OCO5)CCc2cc4c(cc2-3)OCO4)c1
[1]
  Activity: Active
Mus musculus [2]
  Activity: inactive

## Fc1cccc(CC2=C3c4cc5c(cc4CCN3Cc3c2ccc2c3OCO2)OCO5)c1
[1]
  Activity: Active

## N#CC1c2c(ccc3c2OCO3)C=C2c3cc4c(cc3CCN21)OCO4 (racemic)
[1]
  Activity: Active
Mus musculus [3]
  Activity: Toxic

## O=C(O)c1cc(/N=N/c2ccc(S(=O)(=O)Nc3ccccn3)cc2)ccc1O [SULFASALAZINE]
Mus musculus [4]
  Activity: Active
Mus musculus [5]
  Activity_index: 3.98
Mus musculus [6]
  Activity: Active
Mus musculus [7]
  Activity: 30%
Mus musculus [8]
  Activity: -8.42%
Mus musculus [9]
  inhibition in vivo at 300 mg/kg: 30.6%

## C=C(C(C)=O)c1c2c3c(ccc2c(C)c2[n+]1CCc1cc4c(cc1-2)OCO4)OCO3
Mus musculus [2]
  Activity: inactive

## FC(F)(F)c1cccc(CC2=C3c4cc5c(cc4CCN3Cc3c2ccc2c3OCO2)OCO5)c1
[1]
  Activity: Active

## Cc1ccc(CC2=C3c4cc5c(cc4CCN3Cc3c2ccc2c3OCO2)OCO5)cc1
[1]
  Activity: Active

## Fc1ccccc1CC1=C2c3cc4c(cc3CCN2Cc2c1ccc1c2OCO1)OCO4
[1]
  Activity: Active

## C=C(C(=O)CCC)c1c2c3c(ccc2c(C)c2[n+]1CCc1cc4c(cc1-2)OCO4)OCO3
[1]
  Activity: inactive

## Fc1ccc(Cc2c3[n+](cc4c5c(ccc24)OCO5)CCc2cc4c(cc2-3)OCO4)c(F)c1
[1]
  Activity: Active
Mus musculus [2]
  Activity: inactive

## N#Cc1ccc(Cc2c3[n+](cc4c5c(ccc24)OCO5)CCc2cc4c(cc2-3)OCO4)cc1
[1]
  Activity: Active
Mus musculus [2]
  Activity: inactive

## Fc1ccc(CC2=C3c4cc5c(cc4CCN3Cc3c2ccc2c3OCO2)OCO5)c(F)c1
[1]
  Activity: Active

## FC(F)(F)c1cccc(Cc2c3[n+](cc4c5c(ccc24)OCO5)CCc2cc4c(cc2-3)OCO4)c1.[Cl-]
[10]
  Activity: Toxic

## N#Cc1ccc(CC2=C3c4cc5c(cc4CCN3Cc3c2ccc2c3OCO2)OCO5)cc1
[1]
  Activity: Active

## Cc1c2[n+](cc3c4c(ccc13)OCO4)CCc1cc3c(cc1-2)OCO3
[1]
  Activity: Active
Mus musculus [2]
  Activity: inactive

## C1=CC2CC=CCN2CC1 (stereo not given)
[1]
  Activity: Active

## COc1ccc(CC2=C3c4cc5c(cc4CCN3Cc3c2ccc2c3OCO2)OCO5)cc1
[1]
  Activity: Active

## Fc1ccc(Cc2c3[n+](cc4c5c(ccc24)OCO5)CCc2cc4c(cc2-3)OCO4)cc1
[1]
  Activity: Active
Mus musculus [2]
  Activity: inactive

## C=C(C(=O)C(C)(C)C)c1c2c3c(ccc2c(C)c2[n+]1CCc1cc4c(cc1-2)OCO4)OCO3
[1]
  Activity: inactive

## COc1ccc(Cc2c3[n+](cc4c5c(ccc24)OCO5)CCc2cc4c(cc2-3)OCO4)cc1
[1]
  Activity: Active
Mus musculus [2]
  Activity: inactive

## CC(=O)CC1c2c(ccc3c2OCO3)C=C2c3cc4c(cc3CCN21)OCO4 (racemic)
[11]
  fold change (FC): 2.06
Mus musculus [12]
  Activity: 3.33%
[1]
  Activity: Active
Mus musculus [13]
  Activity: 3.26%
Mus musculus [14]
  inhibition in vivo at 200 mg/kg: 63.8%
Mus musculus [15]
  Activity: -12.9%
Mus musculus [16]
  inhibition in vivo at 50 mg/kg: 36.4%
Mus musculus [17]
  inhibition: Dose-dependent effect
Mus musculus [18]
  Activity: 28.8%
Mus musculus [19]
  Activity: 38.3%
Mus musculus [20]
  Activity: 20.4%
Mus musculus [21]
  inhibition in vivo at 100 mg/kg: 60.3%

## C1=C2c3cc4c(cc3CCN2Cc2c1ccc1c2OCO1)OCO4
Mus musculus [22]
  Activity: Dose-dependent effect
[11]
  fold change (FC): 2.96
Mus musculus [23]
  Activity_index: 3.52
Mus musculus [24]
  Activity_index: 2.16
Mus musculus [12]
  Activity: 6.8%
Mus musculus [25]
  Activity: Active
[1]
  Activity: Active
Mus musculus [26]
  Activity: Active
Mus musculus [13]
  Activity: 0.4%
Mus musculus [14]
  inhibition in vivo at 200 mg/kg: 74%
Mus musculus [27]
  Activity_index: 2.86
Mus musculus [15]
  Activity: -7%
Mus musculus [16]
  inhibition in vivo at 50 mg/kg: 48%
Mus musculus [17]
  inhibition: Dose-dependent effect
Mus musculus [18]
  Activity: 20.8%
Mus musculus [19]
  Activity: 24.6%
Mus musculus [20]
  Activity: 18.7%
Mus musculus [28]
  Activity: inactive
Mus musculus [21]
  inhibition in vivo at 100 mg/kg: 55.9%
Mus musculus [29]
  Activity: Active
Mus musculus [30]
  Ratio: <=2

## C=C(C(=O)CC)c1c2c3c(ccc2c(C)c2[n+]1CCc1cc4c(cc1-2)OCO4)OCO3
Mus musculus [2]
  Activity: inactive

## C=C(C(=O)c1ccc(OC)cc1)c1c2c3c(ccc2c(C)c2[n+]1CCc1cc4c(cc1-2)OCO4)OCO3
[1]
  Activity: inactive

## CC1=C2c3cc4c(cc3CCN2Cc2c1ccc1c2OCO1)OCO4
[1]
  Activity: Active
Mus musculus [2]
  Activity: inactive

## C=C(C(=O)CCCC)c1c2c3c(ccc2c(C)c2[n+]1CCc1cc4c(cc1-2)OCO4)OCO3
[1]
  Activity: inactive

## Fc1ccc(CC2=C3c4cc5c(cc4CCN3Cc3c2ccc2c3OCO2)OCO5)cc1
[1]
  Activity: Active

## C=C(C(=O)c1ccc(CC(C)C)cc1)c1c2c3c(ccc2c(C)c2[n+]1CCc1cc4c(cc1-2)OCO4)OCO3
[1]
  Activity: inactive

## Cc1ccc(Cc2c3[n+](cc4c5c(ccc24)OCO5)CCc2cc4c(cc2-3)OCO4)cc1.[Cl-]
[10]
  Activity: Toxic

## C=C(C(=O)C1CC1)c1c2c3c(ccc2c(C)c2[n+]1CCc1cc4c(cc1-2)OCO4)OCO3
[1]
  Activity: inactive

## C=C(C(=O)C(C)C)c1c2c3c(ccc2c(C)c2[n+]1CCc1cc4c(cc1-2)OCO4)OCO3
[1]
  Activity: inactive

## Fc1ccccc1Cc1c2[n+](cc3c4c(ccc13)OCO4)CCc1cc3c(cc1-2)OCO3
[1]
  Activity: Active
Mus musculus [2]
  Activity: inactive
